What was measured:
[1] = tested on: CT26 spheroids (lacking immune cells); experiment: Cytokine profiling of cell line spheroids lacking immune cells; type: cell-based, murine; conditions: Day 1, 3, 6 vs vehicle
Method: (§1) Fresh tumor specimens (murine and human patients) were received in media (DMEM) on ice and minced in a 10 cm dish (on ice) using sterile forceps and scalpel. Minced tumor was resuspended in DMEM (4.5 mM glucose, […] sodium pyruvate, 1:100 penicillin-streptomycin) (Coming CellGro, Manassas, VA)+10% FBS (Gemini Bio-Products, West Sacramento, CA), 100 U/mL collagenase type IV (Life Technologies, Carlsbad, CA), and 15 mM HEPES (Life Technologies, Carlsbad, CA), except for CT26 tumors that were prepared in RPMI. Samples were pelleted and resuspended in 10-20 mL media. Red blood cells were removed from visibly bloody samples using RBC Lysis Buffer (Boston Bio-Products, Ashland, MA). […]
(§2) Two multiplex assays were performed utilizing a bead-based immunoassay approach, the Bio-Plex Pro™ Human Cytokine 40-plex Assay (Cat #171AK99MR2) and Bio-Plex Pro™ Mouse Cytokine Panel 1, 23-plex (Cat #M60009RDPD) on a Bio-plex 200 system (Cat #171000201). […] Fold changes relative to the MDOT/PDOT control were calculated and plotted as log 2FC. Lower and upper limits of quantitation (LLOQ/ULOQ) were imputed from standard curves for cytokines above or below detection. […]

B16F10 MDOTS = experiment: Bead-based cytokine profiling of MDOTS conditioned media; type: cell-based, murine; conditions: Cmpd1 1 μM ± αPD-1
Method: as §1, §2

CT26 MDOTS = experiment: as above; type: cell-based, murine; conditions: Cmpd1 1 μM ± anti-PD-1 10 μg/mL
Method: as §1, §2

CT26 and EMT6 cells = experiment: Re-implantation of CT26 and EMT6 cells after combination therapy (immunologic memory); type: in vivo, mice; conditions: previously treated with anti-PD-L1 + Compound 1
Method: Combination studies were performed by vivoPharm (Hummelstown, PA, USA). All procedures used in the performance of these studies were carried out in accordance with vivoPharm's Standard Operating Procedures, with particular reference to US_SOPvP_EF0314 “General Procedures for Efficacy Studies.” CT26 colon carcinoma cells (1×10^6 cells/mouse in 100 μL, passage 2-3) were re-suspended in serum-free DMEM and implanted in the upper right flank of 11-12 week old female Balb/c mice (Charles River Laboratories). Mice were randomized into four groups of 10 using a matched pair distribution method based on tumor size for CT26. Treatment was initiated 12 days post-inoculation with mean tumor volume at start of dosing of 125.85 mm^3. Vehicle or Compound 1 (40 mg/kg) was administered by oral gavage daily for 26 days and isotype control or a reverse chimera anti-PD-L1 cloned from literature reports (e.g., Deng, R. et al. MAbs (2016), the content of which is incorporated herein by reference in entirety) and placed into a mouse IgG1 framework (10 mg/kg) was administered every 5 days for a total of six doses. Investigators were not blinded to treatment groups. […] Mice were scarified on Day 13 and lung metastases were quantified (small≤1 mm, medium>1 mm and ≤3 mm, large>3 mm). No large lung metastases were detected.

MC38 MDOTS = experiment: Live/dead (AO/PI) staining of MDOTS in 3D microfluidic culture; type: cell-based, murine; conditions: Cmpd1 1 μM + αPD-1, 5 days; not significant vs single-agent PD-1
Method: as §1
Dual labeling was performed by loading microfluidic device with Nexcelom ViaStain™ (fluorescent cell viability dye) AO/PI Staining Solution (Nexcelom, CS2-0106). Following incubation with the dyes (20 minutes at room temperature in the dark), images were captured on a Nikon Eclipse 80i fluorescence microscope equipped with Z-stack (Prior) and CoolSNAP CCD camera (Roper Scientific). […] Live and dead cell quantitation was performed by measuring total cell area of each dye. […]

N#Cc1cc(-c2ncnc(Nc3ccc(N4CCN(C5COC5)CC4)cc3)n2)ccc1OC1CCOCC1 [Compound 1, 5-(4-((4-(4-(oxetan-3-yl)piperazin-1-yl)phenyl)amino)-1,3,5-triazin-2-yl)-2-((tetrahydro-2H-pyran-4-yl)oxy)benzonitrile]
immune suppressive cytokine elaboration by CT26 cell line spheroids [1]: effectively blocked
G-CSF and related innate immune response cytokines in B16F10 MDOTS (B16F10 MDOTS): without concomitant induction
levels of CCL4, CCL3, and IL-10 in CT26 MDOTS (CT26 MDOTS): Decreased levels
growth of reimplanted CT26 in mice with exceptional responses to combination therapy (CT26 and EMT6 cells): no growth
ex vivo killing of MC38 MDOTS, combination treatment (MC38 MDOTS): enhanced

Source: US12116636B2, “Methods for evaluating tumor cell spheroids using 3D microfluidic cell culture device” (Dana-Farber Cancer Institute, Inc., priority 2017, dated 2024)
